Measurements as given in patent publication US20120108557A1, “FLUOROQUINOLONE DERIVATIVES FOR OPHTHALMIC APPLICATIONS” (ALCON RESEARCH, LTD., priority 2008, published 2012).

What was measured:
Assay type in all cases: cell-based
microorganisms = assay: In vitro antimicrobial activity test, whole panel of test organisms; details: across the test organisms of TABLE 3
Procedure: (§1) The activity of the compounds of the present invention was evaluated using an in vitro assay. Microorganisms were prepared from growth on agar media, in broth culture, or from thawed cryopreserved cultures. Fungal cultures were filtered to remove mycelial elements.
(§2) Using Mueller Hinton II Broth, 0.9% saline or other appropriate media, a suspension of each culture was prepared and adjusted to a turbidity equivalent to that of a 0.5 McFarland Standard. (Cultures adjusted to the 0.5 McFarland Standard generally contain approximately 1.0×10^8 CFU/mL). The adjusted suspension for each culture was diluted 1:10 in the appropriate media so that the inoculum concentration approximates 1.0×10^7 CFU/mL.
(§3) The antimicrobial agent to be tested was weighed and diluted with a volume of sterile distilled water calculated to yield the necessary starting concentration. Serial 1:2 dilutions of the antimicrobial agent in sterile distilled water were prepared (approximately 10-12 test concentrations comprise a reasonable experimental range). A known amount of each antimicrobial dilution was combined with an aliquot of agar medium calculated to yield the desired final antimicrobial test concentration and dispensed onto plates.
(§4) The amount of antimicrobial agent to be weighed was determined using the following equation: […]
(§5) Antimicrobial stock solutions were prepared at concentrations 5-10 times the highest concentration to be tested (routinely 1024 μg/mL). […] The stock solution was diluted to appropriate concentration using sterile water to form a working solution. The working solution was diluted two-fold, in sterile water, until the desired concentration is obtained.
Mueller Hinton II agar was prepared as described by the manufacturer. Mueller Hinton II agar may be supplemented with 5% defibrinated sheep blood for testing streptococci. Agar was added to the serially diluted antimicrobial solution in each container. The solutions were mixed thoroughly and poured into petri dishes (about 25 mL/plate). The pH of the agar at 25° C. should be between 7.2 and 7.4. […]

Acinetobacter baumannii = assay: In vitro antimicrobial activity, agar dilution MIC; details: test organism 26, Acinetobacter baumannii
Procedure: as §1, §2, §3, §4, §5
(§6) Mueller Hinton II agar was prepared as described by the manufacturer. Mueller Hinton II agar may be supplemented with 5% defibrinated sheep blood for testing streptococci. Agar was added to the serially diluted antimicrobial solution in each container. The solutions were mixed thoroughly and poured into petri dishes (about 25 mL/plate). The pH of the agar at 25° C. should be between 7.2 and 7.4.
(§7) At least one inocula control plate was inoculated (agar medium without antimicrobial agent) from each seed plate before inoculating test plates. Test plates were inoculated starting at the lowest concentration and proceeding to the highest concentration. After all test plates were inoculated, an additional control plate (agar medium without antimicrobial agent) was inoculated. The plates were incubated in a non-CO2 incubator (or CO2 incubator depending on growth requirements); 18-24 hours at 32-35° C. was sufficient for most organisms.
(§8) All inoculation points on the agar surface were examined for the presence of growth as compared to the inoculum control plates. The results were summarized and use to determine Minimal Inhibitory Concentrations (MICs): The MIC is the lowest concentration of the antimicrobial agent which prevents visible growth of the organism (negative score).

Acinetobacter junii = assay: In vitro antimicrobial activity, agar dilution MIC
Procedure: as §1, §2, §3, §4, §5, §6, §7, §8

[1] = system: Corynebacterium amycolatum; assay: In vitro antimicrobial activity, agar dilution MIC
Procedure: as §1, §2, §3, §4, §5, §6, §7, §8

Enterobacter hormaechei = assay: In vitro antimicrobial activity, agar dilution MIC; details: test organism 31, Enterobacter hormaechei
Procedure: as §1, §2, §3, §4, §5, §6, §7, §8

Enterococcus faecalis = assay: In vitro antimicrobial activity, agar dilution MIC
Procedure: as §1, §2, §3, §4, §5, §6, §7, §8

Escherichia coli = assay: In vitro antimicrobial activity, agar dilution MIC
Procedure: as §1, §2, §3, §4, §5, §6, §7, §8

MRSA = assay: In vitro antimicrobial activity, agar dilution MIC
Procedure: as §1, §2, §3, §4, §5, §6, §7, §8

MRSE = assay: In vitro antimicrobial activity, agar dilution MIC
Procedure: as §1, §2, §3, §4, §5, §6, §7, §8

MSSA = assay: In vitro antimicrobial activity, agar dilution MIC; details: test organism 6, MSSA
Procedure: as §1, §2, §3, §4, §5, §6, §7, §8

Morganella morganii = assay: In vitro antimicrobial activity, agar dilution MIC
Procedure: as §1, §2, §3, §4, §5, §6, §7, §8

Pseudomonas aeruginosa = assay: In vitro antimicrobial activity, agar dilution MIC
Procedure: as §1, §2, §3, §4, §5, §6, §7, §8

Serratia marcescens = assay: In vitro antimicrobial activity, agar dilution MIC
Procedure: as §1, §2, §3, §4, §5, §6, §7, §8

Staphylococcus aureus = assay: In vitro antimicrobial activity, agar dilution MIC
Procedure: as §1, §2, §3, §4, §5, §6, §7, §8

[2] = system: Staphylococcus epidermidis; assay: In vitro antimicrobial activity, agar dilution MIC
Procedure: as §1, §2, §3, §4, §5, §6, §7, §8

[3] = system: Staphylococcus haemolyticus; assay: In vitro antimicrobial activity, agar dilution MIC
Procedure: as §1, §2, §3, §4, §5, §6, §7, §8

[4] = system: Stenotrophomonas maltophilia; assay: In vitro antimicrobial activity, agar dilution MIC
Procedure: as §1, §2, §3, §4, §5, §6, §7, §8

Streptococcus mitis = assay: In vitro antimicrobial activity, agar dilution MIC
Procedure: as §1, §2, §3, §4, §5, §6, §7, §8

Streptococcus pneumoniae = assay: In vitro antimicrobial activity, agar dilution MIC
Procedure: as §1, §2, §3, §4, §5, §6, §7, §8

`Nc1c(F)c(N2CC3CCCNC3C2)c(F)c2c1c(=O)c(C(=O)O)cn2C1CC1` (stereo not drawn) [Compound 3] was tested, and the “antimicrobial activity compared to moxifloxacin (in words)” value (microorganisms) was “showed increased antimicrobial activity against most microorganisms”.

For moxifloxacin [reference compound], the “Minimal Inhibitory Concentration (MIC)” value (Acinetobacter baumannii) was “≦0.25”, the “Minimal Inhibitory Concentration (MIC)” value (Acinetobacter junii; test organism 27, Acinetobacter junii) was “≦0.25” and the “Minimal Inhibitory Concentration (MIC)” value (Acinetobacter junii; test organism 28, Acinetobacter junii) was 0.25. For the same compound, the “Minimal Inhibitory Concentration (MIC)” value (Acinetobacter junii; test organism 29, Acinetobacter junii) was over 4, the “Minimal Inhibitory Concentration (MIC)” value ([1]; test organism 24, Corynebacterium amycolatum) was 0.03 and the “Minimal Inhibitory Concentration (MIC)” value ([1]; test organism 25, Corynebacterium amycolatum) was over 4. The “Minimal Inhibitory Concentration (MIC)” value (Enterobacter hormaechei) was over 4, the “Minimal Inhibitory Concentration (MIC)” value (Enterococcus faecalis; test organism 15, Enterococcus faecalis) was 0.5 and the “Minimal Inhibitory Concentration (MIC)” value (Enterococcus faecalis; test organism 16, Enterococcus faecalis) was “≦0.25”. The “Minimal Inhibitory Concentration (MIC)” value (Enterococcus faecalis; test organism 17, Enterococcus faecalis) was over 4, the “Minimal Inhibitory Concentration (MIC)” value (Enterococcus faecalis; test organism 18, Enterococcus faecalis) was over 2 and the “Minimal Inhibitory Concentration (MIC)” value (Escherichia coli; test organism 32, Escherichia coli) was 0.125. The “Minimal Inhibitory Concentration (MIC)” value (Escherichia coli; test organism 33, Escherichia coli) was “≦0.25”, the “Minimal Inhibitory Concentration (MIC)” value (Escherichia coli; test organism 34, Escherichia coli) was over 4 and the “Minimal Inhibitory Concentration (MIC)” value (MRSA; test organism 3, MRSA) was 2. The “Minimal Inhibitory Concentration (MIC)” value (MRSA; test organism 4, MRSA) was 4, the “Minimal Inhibitory Concentration (MIC)” value (MRSA; test organism 5, MRSA) was over 2 and the “Minimal Inhibitory Concentration (MIC)” value (MRSE; test organism 9, MRSE) was over 2. For the same compound, the “Minimal Inhibitory Concentration (MIC)” value (MRSE; test organism 10, MRSE) was over 2, the “Minimal Inhibitory Concentration (MIC)” value (MRSE; test organism 11, MRSE) was over 4 and the “Minimal Inhibitory Concentration (MIC)” value (MSSA) was over 4. The “Minimal Inhibitory Concentration (MIC)” value (Morganella morganii; test organism 35, Morganella morganii) was 0.5, the “Minimal Inhibitory Concentration (MIC)” value (Morganella morganii; test organism 36, Morganella morganii) was 4 and the “Minimal Inhibitory Concentration (MIC)” value (Pseudomonas aeruginosa; test organism 37, Pseudomonas aeruginosa) was over 4. For the same compound, the “Minimal Inhibitory Concentration (MIC)” value (Pseudomonas aeruginosa; test organism 38, Pseudomonas aeruginosa) was 4, the “Minimal Inhibitory Concentration (MIC)” value (Serratia marcescens; test organism 39, Serratia marcescens) was 2 and the “Minimal Inhibitory Concentration (MIC)” value (Serratia marcescens; test organism 40, Serratia marcescens) was 2. The “Minimal Inhibitory Concentration (MIC)” value (Staphylococcus aureus; test organism 1, Staphylococcus aureus) was 0.06, the “Minimal Inhibitory Concentration (MIC)” value (Staphylococcus aureus; test organism 2, Staphylococcus aureus) was “≦0.25” and the “Minimal Inhibitory Concentration (MIC)” value ([2]; test organism 7, Staphylococcus epidermidis) was 0.06. For the same compound, the “Minimal Inhibitory Concentration (MIC)” value ([2]; test organism 8, Staphylococcus epidermidis) was 1, the “Minimal Inhibitory Concentration (MIC)” value ([3]; test organism 12, Staphylococcus haemolyticus) was 0.5 and the “Minimal Inhibitory Concentration (MIC)” value ([3]; test organism 13, Staphylococcus haemolyticus) was 2. For the same compound, the “Minimal Inhibitory Concentration (MIC)” value ([3]; test organism 14, Staphylococcus haemolyticus) was over 4, the “Minimal Inhibitory Concentration (MIC)” value ([4]; test organism 41, Stenotrophomonas maltophilia) was over 4 and the “Minimal Inhibitory Concentration (MIC)” value ([4]; test organism 42, Stenotrophomonas maltophilia) was 0.125. The “Minimal Inhibitory Concentration (MIC)” value (Streptococcus mitis; test organism 21, Streptococcus mitis) was “≦0.25”, the “Minimal Inhibitory Concentration (MIC)” value (Streptococcus mitis; test organism 22, Streptococcus mitis) was 0.125 and the “Minimal Inhibitory Concentration (MIC)” value (Streptococcus mitis; test organism 23, Streptococcus mitis) was 4. For the same compound, the “Minimal Inhibitory Concentration (MIC)” value (Streptococcus pneumoniae; test organism 19, Streptococcus pneumoniae) was 0.25 and the “Minimal Inhibitory Concentration (MIC)” value (Streptococcus pneumoniae; test organism 20, Streptococcus pneumoniae) was “≦0.25”.
